Test results: patent US20150105252A1, “SUBSTITUTED PYRAZOLES AS HERBICIDES” (E I DU PONT DE NEMOURS AND COMPANY, priority 2013, published 2015)

Tests used:
barnyardgrass [1] = assay: Test A preemergence; type: in vivo, Echinochloa crus-galli; conditions: preemergence; for Barnyardgrass plant response rating (0 to 100 scale, 0 is no effect, 100 is complete control): 125 g ai/ha, visual injury approx. 10 days after treatment; for Barnyardgrass plant response rating: 500 g ai/ha, visual injury after approx. 10 days, 0 to 100 scale (0 no effect, 100 complete control)
How it was run: (§1)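 Growth medium: loam soil blended with sand. Preemergence treatment used a directed soil spray right after planting; postemergence treatment targeted seedlings at one to two leaves (2–10 cm height). Response was judged by eye relative to untreated plants about 10 days later on a 0–100 control scale.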

crabgrass, large [2] = assay: Test A preemergence; type: in vivo, Digitaria sanguinalis; conditions: preemergence; for Crabgrass, Large plant response rating (0 to 100 scale): 125 g ai/ha, visual injury approx. 10 days after treatment; for Crabgrass, Large plant response rating: 500 g ai/ha, visual injury after approx. 10 days, 0 to 100 scale (0 no effect, 100 complete control)
How it was run: as §1

velvetleaf [3] = assay: Test A preemergence; type: in vivo, Abutilon theophrasti; conditions: preemergence, 125 g ai/ha, visual injury approx. 10 days after treatment
How it was run: as §1

barnyardgrass [4] = assay: Test A postemergence; type: in vivo, Echinochloa crus-galli; conditions: Postemergence
How it was run: as §1

crabgrass, large [5] = assay: Test A postemergence; type: in vivo, Digitaria sanguinalis; conditions: Postemergence
How it was run: as §1

pigweed = assay: Test A postemergence; type: in vivo, Amaranthus retroflexus; conditions: Postemergence
How it was run: as §1

nutsedge, yellow = assay: Test C preemergence; type: in vivo, Cyperus esculentus
How it was run: (§2)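 Greenhouse pot test: preemergence application onto freshly seeded loam/sand mix, postemergence application onto seedlings (1–4 leaves, 2–18 cm) in peat-vermiculite substrate. Responses scored visually 13 to 15 days later relative to controls, where 0 means no effect and 100 means complete control; a dash indicates no result.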

soybean [6] = assay: Test C preemergence; type: in vivo, Glycine max
How it was run: as §2

oilseed rape [7] = assay: Test C preemergence; type: in vivo, Brassica napus
How it was run: as §2

velvetleaf [8] = assay: Test C preemergence; type: in vivo, Abutilon theophrasti
How it was run: as §2

wheat = assay: Test C postemergence; type: in vivo, Triticum aestivum; conditions: postemergence; for Plant response rating, Wheat: 250 g ai/ha, scale 0 to 100 (0 no effect, 100 complete control); for Wheat plant response rating: scale 0 to 100
How it was run: as §2

corn = assay: Test C postemergence; type: in vivo, Zea mays; conditions: for Plant response rating (scale of 0 to 100 where 0 is no effect and 100 is complete control), Corn: Postemergence, 31 g ai/ha, visually evaluated after 13 to 15 days; for Corn plant response rating / Plant response rating, Corn: postemergence; for Corn plant response rating: 62 g ai/ha, scale 0 to 100
How it was run: as §2

soybean [9] = assay: Test C postemergence; type: in vivo, Glycine max; conditions: postemergence; for Plant response rating, Soybean: 250 g ai/ha, scale 0 to 100 (0 no effect, 100 complete control); for Soybean plant response rating: 125 g ai/ha, scale 0 to 100, 0 no effect, 100 complete control
How it was run: as §2

barnyardgrass [10] = assay: Test C postemergence; type: in vivo, Echinochloa crus-galli; conditions: for Plant response rating (scale of 0 to 100 where 0 is no effect and 100 is complete control), Barnyardgrass: Postemergence, 31 g ai/ha, visually evaluated after 13 to 15 days; for Barnyardgrass plant response rating / Plant response rating, Barnyardgrass: postemergence; for Barnyardgrass plant response rating: 62 g ai/ha, scale 0 to 100
How it was run: as §2

oilseed rape [11] = assay: Test C postemergence; type: in vivo, Brassica napus; conditions: postemergence; for Oilseed Rape plant response rating: 62 g ai/ha, scale 0 to 100
How it was run: as §2

velvetleaf [12] = assay: Test C postemergence; type: in vivo, Abutilon theophrasti; conditions: postemergence; for Plant response rating, Velvetleaf: 250 g ai/ha, scale 0 to 100 (0 no effect, 100 complete control); for Velvetleaf plant response rating: scale 0 to 100
How it was run: as §2

[13] = 125 g ai/ha, 0 to 100 scale, 0 no effect, 100 complete control
[14] = 500 g ai/ha, 0 to 100 scale (0 no effect, 100 complete control)
[15] = preemergence, 31 g ai/ha, visual rating, scale 0 to 100 (0 no effect, 100 complete control), 13 to 15 days
[16] = preemergence, 62 g ai/ha, scale 0 to 100 (0 no effect, 100 complete control), 13 to 15 days
[17] = preemergence, 125 g ai/ha, 13 to 15 days, scale 0 to 100, 0 = no effect, 100 = complete control
[18] = preemergence, 250 g ai/ha, scale 0 to 100, 0 is no effect, 100 is complete control
[19] = 250 g ai/ha, scale 0 to 100 (0 no effect, 100 complete control)
[20] = 125 g ai/ha, scale 0 to 100, 0 no effect, 100 complete control
[21] = Preemergence, rate head not shown (block before 16 g ai/ha), scale 0 to 100

CCc1cc(C(=O)NCC(F)(F)F)nn1Cc1ccnc(SC(F)(F)F)c1 [Compound 214]
Barnyardgrass plant response rating (0 to 100 scale, 0 is no effect, 100 is complete control) (barnyardgrass [1]): 100
Barnyardgrass plant response rating (barnyardgrass [1]): 100
Crabgrass, Large plant response rating (0 to 100 scale) (crabgrass, large [2]): 100
Crabgrass, Large plant response rating (crabgrass, large [2]): 100
Velvetleaf plant response rating (0 to 100 scale) (velvetleaf [3]): 100
Barnyardgrass plant response rating (barnyardgrass [4]; [13]): 100
Barnyardgrass plant response rating (barnyardgrass [4]; [14]): 100
Crabgrass, Large plant response rating (crabgrass, large [5]; [13]): 100
Crabgrass, Large plant response rating (crabgrass, large [5]; [14]): 100
Pigweed plant response rating (pigweed; [13]): 100
Pigweed plant response rating (pigweed; [14]): 100
Nutsedge, Yellow plant response rating (nutsedge, yellow; [15]): 25
Nutsedge, Yellow plant response rating (nutsedge, yellow; [16]): 55
Plant response rating, Nutsedge, Yellow (nutsedge, yellow; [17]): 65
Nutsedge, Yellow plant response rating (nutsedge, yellow; [18]): 65
Soybean plant response rating (soybean [6]; [15]): 60
Soybean plant response rating (soybean [6]; [16]): 85
Plant response rating, Soybean (soybean [6]; [17]): 90
Soybean plant response rating (soybean [6]; [18]): 95
Oilseed Rape plant response rating (oilseed rape [7]; [15]): 80
Oilseed Rape plant response rating (oilseed rape [7]; [16]): 95
Plant response rating, Oilseed Rape (oilseed rape [7]; [17]): 95
Oilseed Rape plant response rating (oilseed rape [7]; [18]): 95
Velvetleaf plant response rating (velvetleaf [8]; [15]): 35
Velvetleaf plant response rating (velvetleaf [8]; [16]): 100
Plant response rating, Velvetleaf (velvetleaf [8]; [17]): 100
Velvetleaf plant response rating (velvetleaf [8]; [18]): 100
Plant response rating, Wheat (wheat): 10
Wheat plant response rating (wheat): 5
Plant response rating (scale of 0 to 100 where 0 is no effect and 100 is complete control), Corn (corn): 0
Corn plant response rating (corn): 5
Plant response rating, Corn (corn; [19]): 10
Plant response rating, Corn (corn; [20]): 5
Plant response rating, Soybean (soybean [9]): 95
Soybean plant response rating (soybean [9]): 90
Plant response rating (scale of 0 to 100 where 0 is no effect and 100 is complete control), Barnyardgrass (barnyardgrass [10]): 5
Barnyardgrass plant response rating (barnyardgrass [10]): 5
Plant response rating, Barnyardgrass (barnyardgrass [10]; [19]): 65
Plant response rating, Barnyardgrass (barnyardgrass [10]; [20]): 30
Oilseed Rape plant response rating (oilseed rape [11]): 60
Plant response rating, Oilseed Rape (oilseed rape [11]; [19]): 70
Plant response rating, Oilseed Rape (oilseed rape [11]; [20]): 60
Plant response rating, Velvetleaf (velvetleaf [12]): 75
Velvetleaf plant response rating (velvetleaf [12]): 20

CCc1cc(C(=O)NCC(F)(F)F)nn1Cc1ccnc(Br)c1 [Compound 224]
Barnyardgrass plant response rating (0 to 100 scale, 0 is no effect, 100 is complete control) (barnyardgrass [1]): 90
Barnyardgrass plant response rating (barnyardgrass [1]): 100
Crabgrass, Large plant response rating (0 to 100 scale) (crabgrass, large [2]): 100
Crabgrass, Large plant response rating (crabgrass, large [2]): 100
Velvetleaf plant response rating (0 to 100 scale) (velvetleaf [3]): 100
Barnyardgrass plant response rating (barnyardgrass [4]; [13]): 90
Barnyardgrass plant response rating (barnyardgrass [4]; [14]): 100
Crabgrass, Large plant response rating (crabgrass, large [5]; [13]): 90
Crabgrass, Large plant response rating (crabgrass, large [5]; [14]): 100
Pigweed plant response rating (pigweed; [13]): 100
Pigweed plant response rating (pigweed; [14]): 100
Plant response rating, Nutsedge, Yellow (nutsedge, yellow; [21]): 85
Nutsedge, Yellow plant response rating (nutsedge, yellow; [16]): 80
Plant response rating, Nutsedge, Yellow (nutsedge, yellow; [17]): 70
Nutsedge, Yellow plant response rating (nutsedge, yellow; [18]): 90
Plant response rating, Soybean (soybean [6]; [21]): 10
Soybean plant response rating (soybean [6]; [16]): 40
Plant response rating, Soybean (soybean [6]; [17]): 65
Soybean plant response rating (soybean [6]; [18]): 90
Plant response rating, Oilseed Rape (oilseed rape [7]; [21]): 80
Oilseed Rape plant response rating (oilseed rape [7]; [16]): 90
Plant response rating, Oilseed Rape (oilseed rape [7]; [17]): 95
Oilseed Rape plant response rating (oilseed rape [7]; [18]): 95
Plant response rating, Velvetleaf (velvetleaf [8]; [21]): 40
Velvetleaf plant response rating (velvetleaf [8]; [16]): 65
Plant response rating, Velvetleaf (velvetleaf [8]; [17]): 100
Velvetleaf plant response rating (velvetleaf [8]; [18]): 100
Plant response rating, Wheat (wheat): 5
Wheat plant response rating (wheat): 0
Plant response rating (scale of 0 to 100 where 0 is no effect and 100 is complete control), Corn (corn): 5
Corn plant response rating (corn): 5
Plant response rating, Corn (corn; [19]): 10
Plant response rating, Corn (corn; [20]): 10
Plant response rating, Soybean (soybean [9]): 60
Soybean plant response rating (soybean [9]): 70
Plant response rating (scale of 0 to 100 where 0 is no effect and 100 is complete control), Barnyardgrass (barnyardgrass [10]): 0
Barnyardgrass plant response rating (barnyardgrass [10]): 10
Plant response rating, Barnyardgrass (barnyardgrass [10]; [19]): 10
Plant response rating, Barnyardgrass (barnyardgrass [10]; [20]): 10
Oilseed Rape plant response rating (oilseed rape [11]): 50
Plant response rating, Oilseed Rape (oilseed rape [11]; [19]): 55
Plant response rating, Oilseed Rape (oilseed rape [11]; [20]): 50
Plant response rating, Velvetleaf (velvetleaf [12]): 25
Velvetleaf plant response rating (velvetleaf [12]): 20
